Assay results as given in patent publication US12544395B2, “Combination compositions comprising a beta-lactamase inhibitor and uses thereof” (priority 2018, dated 2026).

Tests used:
Assay type in all cases: cell-based
E. coli 1924 = test: Broth microdilution MIC (strain enzymes: TEM-12)
E. coli 2806 = test: Broth microdilution MIC (strain enzymes: SHV-12, TEM-1)
E. coli 3327 = test: Broth microdilution MIC (strain enzymes: TEM-1, SHV-12)
E. coli ESBL 2 = test: Broth microdilution MIC (strain enzymes: TEM-1)
E. coli ESBL 5 = test: Broth microdilution MIC (strain enzymes: CTX-M15, TEM-1)
E. coli Si-FDL-GES = test: microbe, parasite or virus in culture; details: with inhibitor at 1 μg/mL

## CCC(=O)N[C@H]1Cc2cccc(C(=O)O)c2OB1O [Compound 2, (R)-2-hydroxy-3-propionamido-3,4-dihydro-2H-benzo[e][1,2]oxaborinine-8-carboxylic acid]
E. coli 1924; with inhibitor at 1 μg/mL
  MIC of cefalexin (LEX): 0.5 µg/mL
  MIC of cefdinir (CDR): 0.5 µg/mL
  MIC of cefixime (CFM): 0.5 µg/mL
  MIC of ceftibuten (CTB): 0.125 µg/mL
E. coli 1924; with inhibitor at 2 μg/mL
  MIC of cefalexin (LEX): 0.25 µg/mL
  MIC of cefdinir (CDR): 0.25 µg/mL
  MIC of cefixime (CFM): 0.5 µg/mL
  MIC of ceftibuten (CTB): 0.25 µg/mL
E. coli 1924; with inhibitor at 4 μg/mL
  MIC of cefalexin (LEX): 0.25 µg/mL
  MIC of cefdinir (CDR): 0.25 µg/mL
  MIC of cefixime (CFM): 0.25 µg/mL
  MIC of ceftibuten (CTB): 0.125 µg/mL
E. coli 2806; with inhibitor at 1 μg/mL
  MIC of cefalexin (LEX): 0.125 µg/mL
  MIC of cefdinir (CDR): 0.125 µg/mL
  MIC of cefixime (CFM): 0.25 µg/mL
  MIC of ceftibuten (CTB): 0.06 µg/mL
E. coli 2806; with inhibitor at 2 μg/mL
  MIC of cefalexin (LEX): 0.125 µg/mL
  MIC of cefdinir (CDR): 0.125 µg/mL
  MIC of cefixime (CFM): 0.125 µg/mL
  MIC of ceftibuten (CTB): 0.125 µg/mL
E. coli 2806; with inhibitor at 4 μg/mL
  MIC of cefalexin (LEX): 0.25 µg/mL
  MIC of cefdinir (CDR): 0.25 µg/mL
  MIC of cefixime (CFM): 0.125 µg/mL
  MIC of ceftibuten (CTB): 0.125 µg/mL
E. coli 3327; with inhibitor at 1 μg/mL
  MIC of cefalexin (LEX): 0.5 µg/mL
  MIC of cefdinir (CDR): 0.5 µg/mL
  MIC of cefixime (CFM): 1 µg/mL
  MIC of ceftibuten (CTB): 0.25 µg/mL
E. coli 3327; with inhibitor at 2 μg/mL
  MIC of cefalexin (LEX): 0.5 µg/mL
  MIC of cefdinir (CDR): 0.5 µg/mL
  MIC of cefixime (CFM): 0.5 µg/mL
  MIC of ceftibuten (CTB): 0.25 µg/mL
E. coli 3327; with inhibitor at 4 μg/mL
  MIC of cefalexin (LEX): 0.5 µg/mL
  MIC of cefdinir (CDR): 0.5 µg/mL
  MIC of cefixime (CFM): 0.5 µg/mL
  MIC of ceftibuten (CTB): 0.25 µg/mL
E. coli ESBL 2; with inhibitor at 1 μg/mL
  MIC of cefalexin (LEX): 0.5 µg/mL
  MIC of cefdinir (CDR): 0.5 µg/mL
  MIC of cefixime (CFM): 0.25 µg/mL
  MIC of ceftibuten (CTB): 0.125 µg/mL
E. coli ESBL 2; with inhibitor at 2 μg/mL
  MIC of cefalexin (LEX): 0.5 µg/mL
  MIC of cefdinir (CDR): 0.5 µg/mL
  MIC of cefixime (CFM): 0.25 µg/mL
  MIC of ceftibuten (CTB): 0.125 µg/mL
E. coli ESBL 2; with inhibitor at 4 μg/mL
  MIC of cefalexin (LEX): 0.25 µg/mL
  MIC of cefdinir (CDR): 0.25 µg/mL
  MIC of cefixime (CFM): 0.125 µg/mL
  MIC of ceftibuten (CTB): 0.125 µg/mL
E. coli ESBL 5; with inhibitor at 1 μg/mL
  MIC of cefalexin (LEX): 8 µg/mL
  MIC of cefdinir (CDR): 8 µg/mL
  MIC of cefixime (CFM): 1 µg/mL
  MIC of ceftibuten (CTB): 0.25 µg/mL
E. coli ESBL 5; with inhibitor at 2 μg/mL
  MIC of cefalexin (LEX): 2 µg/mL
  MIC of cefdinir (CDR): 2 µg/mL
  MIC of cefixime (CFM): 1 µg/mL
  MIC of ceftibuten (CTB): 0.125 µg/mL
E. coli ESBL 5; with inhibitor at 4 μg/mL
  MIC of cefalexin (LEX): 2 µg/mL
  MIC of cefdinir (CDR): 2 µg/mL
  MIC of cefixime (CFM): 0.5 µg/mL
  MIC of ceftibuten (CTB): 0.125 µg/mL
E. coli Si-FDL-GES
  MIC of cefalexin (LEX): 0.5 µg/mL
  MIC of cefdinir (CDR): 0.5 µg/mL
